Here are results for 29 molecules from ChEMBL document CHEMBL1130733, “Synthesis and structure-activity relationships of pyridine-modified analogs of 3-[2-((S)-pyrrolidinyl)methoxy]pyridine, A-84543, a potent nicotinic acetylcholine receptor agonist” (Bioorg Med Chem Lett, 1998).

Experiment [1] concerns the target Neuronal acetylcholine receptor; alpha4/beta2 (Rattus norvegicus, UniProt P09483+P12390). The experiment is described as follows: Binding affinity towards nAChR (alpha4-beta2) by the displacement of [3H](-)-cytisine in whole rat brain membranes. It is filed as cell membranes.
Experiment [2] concerns the target T1, Neuronal acetylcholine receptor; alpha4/beta2 (Homo sapiens, UniProt P17787+P43681). The experiment is described as follows: Maximal efficacy relative to 100 uM nicotine in human nAChR alpha4-beta2 expressing K177 cells. It is filed as cell-based.
In experiment [3] the target is Nicotinic acetylcholine receptor alpha3/betaX. Kind of experiment: Stimulation of cation efflux in Nicotinic acetylcholine receptor alpha3-betaX subtype expressing IMR-32 cells. It is filed as functional, cell-based, Homo sapiens.
The target of experiment [4] is T1, Neuronal acetylcholine receptor; alpha4/beta2. The experiment is described as follows: Stimulation of cation efflux in human nAChR alpha4-beta2 expressing K177 cells. It is filed as cell-based.
For experiment [5], the target named is Nicotinic acetylcholine receptor alpha3/betaX (Homo sapiens) (UniProt P11230+P17787+P30926+P32297+Q05901). Kind of experiment: Maximal efficacy relative to 100 uM nicotine in Nicotinic acetylcholine receptor alpha3-betaX subtype expressing IMR-32 cells. It is filed as cell-based.
Experiment [6] concerns the target T1, Neuronal acetylcholine receptor; alpha4/beta2. The experiment is described as follows: Inhibition of cation efflux in human nAChR alpha4-beta2 expressing K177 cells. It is filed as cell-based.
Experiment [7] shares this target. The following applies: IMR-32.
Description: Maximal efficacy in nAChR subtype human alpha3betaX, expressed in IMR-32 cells
Experiment [8] shares this target. Particulars: K177.
Description: Maximal efficacy in human nAChR alpha4-beta2 expressing K177 cells

pEC50, pIC50, pKi: −log10 of the molar value.

T1 sequence (P17787 whole entry): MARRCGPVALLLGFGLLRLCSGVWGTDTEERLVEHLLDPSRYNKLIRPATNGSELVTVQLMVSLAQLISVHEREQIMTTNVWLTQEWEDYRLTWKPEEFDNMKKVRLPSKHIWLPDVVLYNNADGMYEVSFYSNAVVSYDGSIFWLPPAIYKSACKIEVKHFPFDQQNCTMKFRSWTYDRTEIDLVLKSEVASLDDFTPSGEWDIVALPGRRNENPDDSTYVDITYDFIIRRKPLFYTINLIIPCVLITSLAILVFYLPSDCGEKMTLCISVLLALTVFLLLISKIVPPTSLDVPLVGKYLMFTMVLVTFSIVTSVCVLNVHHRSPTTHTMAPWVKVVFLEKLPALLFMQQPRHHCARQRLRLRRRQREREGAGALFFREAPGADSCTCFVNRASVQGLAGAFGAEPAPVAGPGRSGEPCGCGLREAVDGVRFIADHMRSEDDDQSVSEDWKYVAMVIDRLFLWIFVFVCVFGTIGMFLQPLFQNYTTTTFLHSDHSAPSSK
T1 sequence (P43681 whole entry): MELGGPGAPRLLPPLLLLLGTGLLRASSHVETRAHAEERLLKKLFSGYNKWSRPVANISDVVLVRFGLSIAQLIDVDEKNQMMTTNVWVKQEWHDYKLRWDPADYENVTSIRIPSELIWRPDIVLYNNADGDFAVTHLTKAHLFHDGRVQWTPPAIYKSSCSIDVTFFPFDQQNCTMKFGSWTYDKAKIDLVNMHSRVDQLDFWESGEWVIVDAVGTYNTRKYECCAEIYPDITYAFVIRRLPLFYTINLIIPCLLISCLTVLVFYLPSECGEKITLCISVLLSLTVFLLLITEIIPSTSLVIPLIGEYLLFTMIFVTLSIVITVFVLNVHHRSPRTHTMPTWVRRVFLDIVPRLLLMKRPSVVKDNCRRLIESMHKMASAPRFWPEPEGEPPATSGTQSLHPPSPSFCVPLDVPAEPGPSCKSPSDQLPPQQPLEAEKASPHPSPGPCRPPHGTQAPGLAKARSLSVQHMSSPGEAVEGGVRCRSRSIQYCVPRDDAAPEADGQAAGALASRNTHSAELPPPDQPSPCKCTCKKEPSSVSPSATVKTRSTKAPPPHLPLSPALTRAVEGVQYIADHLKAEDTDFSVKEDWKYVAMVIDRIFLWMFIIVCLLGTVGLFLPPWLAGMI
Sequence of Neuronal acetylcholine receptor; alpha4/beta2 (Rattus norvegicus, UniProt P09483+P12390) (P09483 whole entry): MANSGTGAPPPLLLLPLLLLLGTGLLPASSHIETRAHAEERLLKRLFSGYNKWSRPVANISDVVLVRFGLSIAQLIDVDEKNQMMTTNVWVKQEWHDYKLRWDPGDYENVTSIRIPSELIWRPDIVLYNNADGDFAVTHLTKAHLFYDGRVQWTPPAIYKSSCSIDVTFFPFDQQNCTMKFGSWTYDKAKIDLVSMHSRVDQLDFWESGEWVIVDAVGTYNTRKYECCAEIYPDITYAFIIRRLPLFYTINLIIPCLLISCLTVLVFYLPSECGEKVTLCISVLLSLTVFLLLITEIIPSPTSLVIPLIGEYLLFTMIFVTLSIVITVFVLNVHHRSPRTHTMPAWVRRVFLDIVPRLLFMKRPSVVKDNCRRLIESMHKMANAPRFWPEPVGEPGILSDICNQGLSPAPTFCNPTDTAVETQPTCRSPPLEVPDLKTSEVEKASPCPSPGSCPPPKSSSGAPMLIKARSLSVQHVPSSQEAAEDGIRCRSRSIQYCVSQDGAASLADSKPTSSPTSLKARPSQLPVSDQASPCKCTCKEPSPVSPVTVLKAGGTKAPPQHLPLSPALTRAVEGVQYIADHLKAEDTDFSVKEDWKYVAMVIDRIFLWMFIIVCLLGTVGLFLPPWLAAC
Sequence of Neuronal acetylcholine receptor; alpha4/beta2 (Rattus norvegicus, UniProt P09483+P12390) (P12390 whole entry): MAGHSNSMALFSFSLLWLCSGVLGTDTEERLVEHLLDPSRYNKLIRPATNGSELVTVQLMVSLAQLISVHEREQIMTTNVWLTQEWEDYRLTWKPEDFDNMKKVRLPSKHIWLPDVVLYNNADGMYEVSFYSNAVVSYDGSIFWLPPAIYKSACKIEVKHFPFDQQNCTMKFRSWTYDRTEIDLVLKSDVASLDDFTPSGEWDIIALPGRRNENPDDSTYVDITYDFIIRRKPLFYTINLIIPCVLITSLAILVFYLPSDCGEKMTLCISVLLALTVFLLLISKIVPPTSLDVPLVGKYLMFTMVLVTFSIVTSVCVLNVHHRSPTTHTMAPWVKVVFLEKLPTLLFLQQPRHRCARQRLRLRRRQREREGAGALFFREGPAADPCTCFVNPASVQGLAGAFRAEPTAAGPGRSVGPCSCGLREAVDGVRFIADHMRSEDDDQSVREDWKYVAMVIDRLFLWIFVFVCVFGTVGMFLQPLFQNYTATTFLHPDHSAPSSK

Regarding `CN1CCC[C@H]1COc1cncc(N)c1`, the pKi – broadly, the negative decadic logarithm of the Ki, by convention in mol/L – in experiment [1] was 9.20.

Consider `CN1CCC[C@H]1COc1cccnc1I`, for which, in experiment [1], the pKi is 6.22.

With `CN1CCC[C@H]1COc1cccnc1[N+](=O)[O-]`, the pKi in experiment [1] was 5.05.

With `CN1CCC[C@H]1COc1ccc(CO)nc1`, the pKi in experiment [1] is 7.01.

As to `CN1CCC[C@H]1COc1ccc(Cl)nc1`, the Max in experiment [2] was 108%. The same molecule gave a pKi in experiment [1] of 9.19. For the same molecule, the pEC50 – broadly, the EC50 on a negative log10 scale, so that one unit is a factor of ten – in experiment [3] is 4.57; in experiment [4] it was 5.85.

As to `CN1CCC[C@H]1COc1cccnc1`, the values for the Max in experiment [2] and in experiment [5] were 100% and 73.2%, respectively. Further, the pKi in experiment [1] was 9.82. In addition, the pEC50 in experiment [3] was 4.71.

As to `CN1CCC[C@H]1COc1ccc(F)nc1`, the pKi in experiment [1] was 8.59.

With `CN1CCC[C@H]1COc1cncc(C(F)(F)F)c1`, in experiment [1], the pKi is 8.74.

In experiment [1], `CC(C)Cc1cncc(OC[C@@H]2CCCN2C)c1` had a pKi of 9.68.

For the molecule `CCCCCCc1cncc(OC[C@@H]2CCCN2C)c1`, the pKi in experiment [1] is 9.49.

`Cc1ccncc1OC[C@@H]1CCCN1C`: the Max in experiment [2] worked out at 73.9%. Besides, the pKi in experiment [1] was 8.39. Moreover, the figures for the pEC50 in experiment [3] and in experiment [4] were under 3.00 and 5.68, respectively.

As for `CN1CCC[C@H]1COc1cncc(F)c1`, in experiment [1], the pKi was 9.16.

Regarding `CCCCc1cncc(OC[C@@H]2CCCN2C)c1`, the Max in experiment [2] came out at 14%. The pKi in experiment [1] is 9.80. In addition, in experiment [6], the pIC50 (commonly the negative decadic logarithm of the IC50, by convention in mol/L) was 6.19. In addition, the pEC50 in experiment [3] and in experiment [4] was under 3.00 throughout.

For the molecule `Cc1cncc(OC[C@@H]2CCCN2C)c1`, in experiment [2], the Max is 77%. This molecule also had a pKi in experiment [1] of 9.32. Also, the pEC50 in experiment [3] was 5.54; in experiment [4], 5.64.

In the case of `CCCc1cncc(OC[C@@H]2CCCN2C)c1`, the Max in experiment [2] was 13%. The pKi in experiment [1] is 9.92. The molecule also showed a pIC50 in experiment [6] of 5.62. For the same molecule, the pEC50 in experiment [3] and in experiment [4] was under 3.00 in each case.

`CCNc1cncc(OC[C@@H]2CCCN2C)c1`: the pKi in experiment [1] was 8.43.

For the molecule `CN1CCC[C@H]1COc1cncc(Br)c1`, the Max in experiment [2] came out at 41.8%. In experiment [1], this molecule showed a pKi of 9.57. In experiment [4], this molecule had a pEC50 of 5.23.

Molecule `CN1CCC[C@H]1COc1cc(Br)c[n+]([O-])c1` showed a pKi in experiment [1] of 7.46.

The molecule `CN1CCC[C@H]1COc1cccnc1Br` returned a Max in experiment [2] of 12.3%. In experiment [1], this molecule showed a pKi of 6.35. The pEC50 in experiment [3] and in experiment [4] was under 3.00 in each case.

For the molecule `CCN(CC)C(=O)c1ccncc1OC[C@@H]1CCCN1C`, the pKi in experiment [1] is 5.55.

With `CN1CCC[C@H]1c1cccnc1`, the Max in experiment [7] and in experiment [8] was 100% each time.

For the molecule `CN1CCC[C@H]1COc1cnccc1Br`, the Max in experiment [2] turned out to be 14.1%. Further, the pKi in experiment [1] is 7.55. For the same molecule, the negative logarithm of the EC50 (pEC50) in experiment [3] and in experiment [4] was under 3.00 in each case.

For `CN1CCC[C@H]1COc1ccc(Br)nc1`, in experiment [2], the Max is 42.5%. In experiment [1], this molecule had a pKi of 8.72. For the same molecule, the results for the pEC50 in experiment [3] and in experiment [4] were under 3.00 and 5.59, respectively.

For the molecule `Cc1ncccc1OC[C@@H]1CCCN1C`, the Max was 26.7% in experiment [2] and 27.7% in experiment [5]. This molecule also gave a pKi in experiment [1] of 7.64. Also, the pEC50 in experiment [3] was 4.74; in experiment [4], 5.32.

For `CN1CCC[C@H]1COc1cncc(Cl)c1`, in experiment [1], the pKi is 9.22.

`CN1CCC[C@H]1COc1cncc([N+](=O)[O-])c1` gave a pKi in experiment [1] of 8.33.

As for `Cc1ccc(OC[C@@H]2CCCN2C)cn1`, the Max in experiment [2] was determined as 54.4%. The molecule further gave a pKi in experiment [1] of 8.90. For the same molecule, the pEC50 was 4.87 in experiment [3] and 5.66 in experiment [4].

Molecule `CCc1cncc(OC[C@@H]2CCCN2C)c1` came in with a Max in experiment [2] of 33.7%. In experiment [1], this molecule showed a pKi of 9.49. Further, the pEC50 is under 3.00 in experiment [3] and 6.00 in experiment [4].

As for `CSc1ncccc1OC[C@@H]1CCCN1C`, the pKi in experiment [1] is 6.25.
